Values joined by “and” are separate entries in the source; they are usually repeats but may differ in a detail not shown here. Equal entries are not always repeated.
Assays:
coronary patients [1] = test: SPECT imaging study, summed difference scores (Example 2, Phase II); assay type: in vivo, human; parameters: key: SDS = SSS − SRS; summed 17-segment scores, each segment 0–4; conditions: Series I sequential: SC = dipyridamole 40 μg/kg bolus then adenosine 70 μg/kg/min 4 min; Adenoscan 140 μg/kg/min; 10 patients
Description: The study was a mono-center, single-blind, 2-arm, cross-over trial.
Only those patients in whom an ischemic zone was detected were declared eligible for the second test, and were enrolled in the study if other inclusion criteria were satisfied.
SPECT images were acquired as per the standard approach performed the preceding week.
Since thallium is currently deemed the best isotope to test myocardial viability at rest, and sestamibi the best isotope to detect myocardial defects under stress conditions, a dual isotope myocardial scintigraphy technique was used for this study. The isotope was injected after a 3 minute infusion with Adenoscan or after a 2.5 minute infusion with the combination. […]
Randomization of SPECT images, and their analysis by two blinded readers, took place every 10 patients. Anonymous and randomized images were assessed using the standard 17-segment model and the semi-quantitative visual score method on a 5-point scale (from 0 to 4). An additional totally computerized quantitative method was performed using the validated CardioGam software (Segami Corp.). All images were interpreted and quantified automatically by the software calculation package. […]
Summed stress scores (with Adenosine or with Adenosoft) were defined as SSS, summed rest scores (Thallium) as SRS and summed difference scores as SDS=SSS-SRS. […] If >2, images were read again by a third independent expert. […]

coronary patients [2] = test: Tolerance, severity of main symptoms (Example 3); assay type: in vivo, human
Description: (§1) Primary efficacy end-points were peak and mean diastolic flow velocities (their measurements reflect coronary blood flow values). The secondary end-point was patient's tolerance to the procedure.

patients [3] = test: Control: two consecutive adenosine infusions, TTDE velocities; assay type: in vivo, human; conditions: for MV Min, individual patients / PV Min, individual patients / MV Min, mean / PV Min, mean: at rest; for MV Min, individual patients / PV Min, individual patients / PV Max, individual patients / MV Max, individual patients: ADE1 first, ADE2 second adenosine infusion; for MV Min, mean / PV Min, mean / MV Max, mean / PV Max, mean: mean of 5 patients; for PV Max, individual patients / MV Max, individual patients / MV Max, mean / PV Max, mean: under stress
Description: Abbreviations used in the table are defined below:

[4] = test system: patients suffering from ischemic heart disease; test: Transthoracic doppler echocardiography (TTDE) blood flow velocity in LAD, sequential administration (Example 1); assay type: in vivo, human; conditions: mean; for Mean velocity Min / Peak velocity Min: at rest (basal); for Mean velocity Max / Peak velocity Max: under stress
Procedure: In the combined administration, each of the two agents was administered at a dosage lower than its clinically preferred dosage when used as a single agent for myocardial perfusion imaging. Effects were measured using noninvasive transthoracic doppler echocardiography (TTDE).
Primary efficacy end-points were peak and mean diastolic flow velocities (measured as reflecting coronary blood flow values). The secondary end-point was patient tolerance to the procedure. The protocol was designed as follows.
Forty (40) consecutive patients suffering from ischemic heart disease were enrolled. Each patient served as their own control.
[…] Total doses are between about 4-6% of the lowest single-agent total dose of dipyridamole (i.e., 0.56 mg/kg, infused over a total of 4 minutes).
This dose is half the standard single-agent dosage rate of 140 μg/kg/min.

coronary patients [5] = test: TTDE coronary reserve study, concurrent administration for two minutes (Example 3); assay type: in vivo, human; conditions: 31 patients
Description: as §1

[6] = test system: patients with normal coronary reserve; test: Priming dose effect: time to peak and return to baseline, concurrent administration (Example 4); assay type: in vivo, human; conditions: for Time to peak, individual patients / Return to BL, individual patients / Return to BL, Mean / Return to BL, Total / Time to peak, Mean / Time to peak, Total: N = 6; for Time to peak, individual patients / Return to BL, individual patients: listed as ADE; for Time to peak (near maximal hyperemia): adenosine alone vs concurrent combination without priming dose, on average
Description: As a test, a low priming dose of dipyridamole was combined with the concurrent administration of the two drugs to determine whether the time to peak and the occurrence of near maximal hyperaemia could be accelerated, especially when infusion time is reduced by, for example, one minute.

patients [7] = conditions: most frequently reported adverse effects with adenosine; cited from earlier work
[8] = adenosine 70 μg/kg/min + dipyridamole 10 μg/kg/min vs adenosine 140 μg/kg/min, 2 min
[9] = before infusion, DIP5: SC = dipyridamole 28 μg/kg + adenosine 70 μg/kg/min, ADE = adenosine 140 μg/kg/min, 30 patients
[10] = DIP4: SC = dipyridamole 35 μg/kg + adenosine 70 μg/kg/min, ADE = adenosine 140 μg/kg/min, 5 patients
[11] = DIP6: SC = dipyridamole 23 μg/kg + adenosine 70 μg/kg/min, ADE = adenosine 140 μg/kg/min, 5 patients
[12] = DIP4: SC = dipyridamole 35 μg/kg IV bolus then adenosine 70 μg/kg/min, ADE = adenosine alone 140 μg/kg/min, 5 patients
[13] = DIP5: SC = dipyridamole 28 μg/kg IV bolus then adenosine 70 μg/kg/min 3 min, ADE = adenosine alone 140 μg/kg/min 3 min, 30 patients
[14] = DIP6: SC = dipyridamole 23 μg/kg IV bolus then adenosine 70 μg/kg/min, ADE = adenosine alone 140 μg/kg/min, 5 patients
[15] = cumulated, all 40 patients: SC = dipyridamole 23, 28 or 35 μg/kg bolus then adenosine 70 μg/kg/min, ADE = adenosine alone 140 μg/kg/min
[16] = Delta = peak-BL, concurrent dipyridamole 10 + adenosine 70 μg/kg/min 2 min vs adenosine alone
[17] = concurrent dipyridamole 10 + adenosine 70 μg/kg/min 2 min vs adenosine alone
[18] = ADE vs C concurrent with dipyridamole priming dose (0.1 mg)
[19] = with dipyridamole priming dose (0.1 mg)
[20] = without dipyridamole priming dose

Compound: Nc1ncnc2c1ncn2[C@@H]1O[C@H](CO)[C@@H](O)[C@H]1O [adenosine]
- SDS (summed difference scores), individual patients (coronary patients [1]): 5 (5×) and 4 (2×) and 14 and 13 and 7
- Patients who experienced thoracic discomfort (coronary patients [2]; Example 3 series): 4 patients
- Severity of chest pain (coronary patients [2]; [8]): 0.68 ± 1.87
- Severity of dyspnea (coronary patients [2]; [8]): 3.64 ± 3.67
- Severity of flushing (coronary patients [2]; [8]): 4.50 ± 3.15
- Max velocity differential MV (ADE1 − ADE2) (patients [3]; 5 patients): 52.6 (ADE2) = 2.4 cm/sec
- Max velocity differential PV (ADE1 − ADE2) (patients [3]; 5 patients): 70.8 (ADE2) = 4.8 cm/sec
- Difference in velocity measurements between two consecutive infusions (patients [3]; 140 mcg/kg/min, 5 minute interval, p>0.05): no difference was seen
- MV Min, individual patients (patients [3]; listed as ADE1): 20 cm/s and 25 cm/s and 17 cm/s and 22 cm/s and 23 cm/s
- PV Min, individual patients (patients [3]; listed as ADE1): 28 cm/sec and 34 cm/sec and 23 cm/sec and 30 cm/sec (2×)
- MV Min, individual patients (patients [3]; listed as ADE2): 20 cm/s and 23 cm/s and 16 cm/s and 22 cm/s and 21 cm/s
- PV Min, individual patients (patients [3]; listed as ADE2): 25 cm/sec and 31 cm/sec and 22 cm/sec and 29 cm/sec and 26 cm/sec
- MV Min, mean (patients [3]; listed as ADE1): 21.4 cm/s
- PV Min, mean (patients [3]; listed as ADE1): 29 cm/sec
- MV Min, mean (patients [3]; listed as ADE2): 20.4 cm/s
- PV Min, mean (patients [3]; listed as ADE2): 26.6 cm/sec
- PV Max, individual patients (patients [3]; 140 mcg/kg/min, 5 minute interval, listed as ADE1): 70 cm/sec and 68 cm/sec and 65 cm/sec and 102 cm/sec and 73 cm/sec
- PV Max, individual patients (patients [3]; 140 mcg/kg/min, 5 minute interval, listed as ADE2): 62 cm/sec and 60 cm/sec and 66 cm/sec and 103 cm/sec and 63 cm/sec
- MV Max, individual patients (patients [3]; 140 mcg/kg/min, listed as ADE1): 50 cm/s and 49 cm/s and 48 cm/s and 75 cm/s and 53 cm/s
- MV Max, individual patients (patients [3]; 140 mcg/kg/min, listed as ADE2): 48 cm/sec (2×) and 45 cm/sec and 75 cm/sec and 47 cm/sec
- MV Max, mean (patients [3]; listed as ADE1): 55 cm/s
- PV Max, mean (patients [3]; listed as ADE1): 75.6 cm/sec
- MV Max, mean (patients [3]; listed as ADE2): 52.6 cm/s
- PV Max, mean (patients [3]; listed as ADE2): 70.8 cm/sec
- Mean velocity Min [4, 9]: 23.1 cm/s
- Peak velocity Min [4, 9]: 30.6 cm/sec
- Mean velocity Min [4, 10]: 22.2 cm/s
- Peak velocity Min [4, 10]: 28 cm/sec
- Mean velocity Min [4, 11]: 28.2 cm/s
- Peak velocity Min [4, 11]: 37.6 cm/sec
- Mean velocity Min ([4]; cumulated, all 40 patients): 23.7 cm/s
- Peak velocity Min ([4]; cumulated, all 40 patients): 31.2 cm/sec
- Mean velocity Max [4, 12]: 60.4 cm/s
- Peak velocity Max [4, 12]: 80 cm/sec
- Mean velocity Max [4, 13]: 61.4 cm/s
- Peak velocity Max [4, 13]: 82.6 cm/sec
- Mean velocity Max [4, 14]: 80.2 cm/s
- Peak velocity Max [4, 14]: 107 cm/sec
- Mean velocity Max [4, 15]: 63.6 cm/s
- Peak velocity Max [4, 15]: 85.3 cm/sec
- Delta mean velocity (coronary patients [5]; [16]): 41.5 ± 15.3
- Delta peak velocity (coronary patients [5]; [16]): 54.4 ± 20.5
- Peak velocity at baseline (coronary patients [5]; at rest): 33.0 ± 12.9
- Mean velocity at baseline (coronary patients [5]; at rest, concurrent dipyridamole 10 μg/kg/min + adenosine 70 μg/kg/min 2 min vs adenosine alone 140 mg/kg/min (so in the source)): 25.2 ± 8.9
- Coronary reserve assessment using mean velocity (coronary patients [5]; [17]): 2.79 ± 0.90
- Coronary reserve assessment using peak velocity (coronary patients [5]; [17]): 2.82 ± 0.96
- Time to peak, individual patients ([6]; ADE 140 μg/kg/min vs C (Dip 10 μg/kg/min + Ade 70 μg/kg/min) concurrent without dipyridamole priming dose): 56 s and 120 s and 50 s and 85 s and 80 s and 75 s
- Return to BL, individual patients ([6]; ADE 140 μg/kg/min vs C concurrent without dipyridamole priming dose): 75 seconds and 60 seconds (3×) and 100 seconds and 48 seconds
- Return to BL, individual patients [6, 18]: 55 s and 65 s and 54 s and 67 s and 48 s and 60 s
- Time to peak, individual patients [6, 18]: 74 s and 55 s and 45 s and 44 s and 30 s and 40 s
- Time to peak (near maximal hyperemia) [6]: about 1 minute
- Time to peak (near maximal hyperemia) ([6]; listed as Adenoscan): ~1 min
- Return to BL, Mean [6, 19]: 58.1 s
- Return to BL, Total [6, 19]: 349 s
- Time to peak, Mean [6, 19]: 48 s
- Time to peak, Total [6, 19]: 288 s
- Return to BL, Mean [6, 20]: 67.1 s
- Return to BL, Total [6, 20]: 403 s
- Time to peak, Mean [6, 20]: 69.3 s
- Time to peak, Total [6, 20]: 416 s
- Frequency of chest pain or chest discomfort (patients [7]): 40%
- Frequency of gastrointestinal discomfort (patients [7]): 13%
- Frequency of throat or neck or jaw discomfort (patients [7]): 15%
